This is an account of results in US9597347B2, “Compositions for treating obesity and insulin resistance disorders” (President and Fellows of Harvard College, priority 2003, dated 2017).

The test system of one assay is C. elegans worms. Put plainly: Nile Red fat staining in C. elegans fed RNAi bacteria. It counts as in vivo. How it is done: The role of Sir2.1 in fat metabolism was shown in C. elegans worms in which Sir2.1 was RNA inactivated. Young adult worms were grown to adulthood in the presence of bacteria that carry RNAi vector alone or vector encoding Sir2.1 RNAi (R11A8.4), as described below. These worms were grown in the presence or absence of resveratrol, and stained with Nile-Red as described below.
We have examined the C. elegans database and found two gene products that are highly related to mammalian AMPK, TOC1.8 and Par2.3; five genes encoding homologs of CPT-1 and one gene encoding a homolog of COT. C. elegans worms were incubated with bacteria carrying RNAi vector alone, or interfering RNA against TOC1.8 or F41E7.3, a C. elegans homologue of COT in the presence or absence of AICAR. Fat accumulation was visualized with Nile-Red, as described below. […] Thus, AICAR/AMPK signaling to fatty acid oxidation is conserved in worms and mammalian cells.
The effect of TOC1.8 and COT inactivation was then investigated in C. elegans incubated with resveratrol. C. elegans worms were incubated with bacteria carrying RNAi vector alone, or a vector encoding TOC1.8 or COT interfering RNA in the presence or absence of resveratrol. Fat accumulation was visualized with Nile-Red, as described below.
RNAi plates were seeded with HTT5 E. coli carrying either the L4440 RNAi vector control or the specific RNAi clones T01C8.1, AMPK; R11A8.4, sir-2.1; or F41E7.6 COT in the presence or absence of 100 μM resveratrol. Young adults were transferred to plates containing the appropriate vector, Nile Red stain and drug then maintained at 25° C. Nile Red staining was assessed 24 hours after resveratrol treatment by UV microscopy.
HT115 E. Coli carrying the RNAi vector, L4440, were used for maintenance feeding. Bacteria containing experimental RNAi clones were cultured in 10 ml Luria Broth media containing 50 μg/ml ampicillin for 18 hours. 350 μl of each culture was spotted to a 60 mm dish containing NGM agar, 6 mM IPTG and 25 μg/ml carbenicillin. After overnight incubation (at room temp), Nile Red was added on top of each dish to a final concentration of 0.05 μg/ml along with the experimental compounds indicated in the figure legends. Nile Red staining was assessed after 24 hrs by UV microscopy. For each batch of RNAi clones tested, L4440 (vector alone) was included. […] All phenotypes were confirmed by at least three additional rounds of testing.

A further assay deals with phosphorylation of ACC. Briefly: Western blot of ACC phosphorylation in 3T3-L1 adipocytes. It counts as cell-based. The conditions noted are these: harvested 6 or 10 days after induction of differentiation. The protocol:
Phosphorylation of ACC, which reflects AMPK activity, was also observed in 3T3-L1 adipocytes treated with either ethanol or resveratrol. 3T3-L1 cells were incubated with either ethanol or resveratrol and then harvested either 6 or 10 days after they were induced to differentiate into adipocytes from the parent 3T3 fibroblast cell line. […] ACC was also phosphorylated when the cells were incubated in serum free media overnight before harvesting (lanes marked “SF”). The reason for the extra band in the SIRT1 blot at day 6 is unknown, but we hypothesize that it may be a modified form of SIRT1. Tubulin served as a loading control.

The next assay relates to NIH3T3 cells. Put plainly: Adipocyte differentiation and fat content by Oil Red O staining, NIH3T3 cells. The format is cell-based. How it is done:
To obtain evidence that resveratrol affects fat metabolism in a physiologically relevant cell, we examined the effect of increasing concentrations of resveratrol on 3T3-L1 and NIH3T3 cell differentiation and fat content. 3T3-L1 or NIH3T3 cells were grown to confluence and allowed to pack in for 2 days at which point differentiation was initiated by addition of isobutylmethylxanthine, dexamethasone and insulin in the presence of vehicle (ethanol alone) or resveratrol at concentrations of 0, 12.5 and 25 μM. After 10 days of differentiation, fat content was assessed by Oil Red O staining, as described below. The results, which are shown in FIG. 12, indicate that concentrations of 25 μM or higher resveratrol decreased the quantity of cellular fat in 3T3-L1 and NIH3T3 cells. The results in NIH3T3 cells confirm the results obtained in C. elegans.
To further examine whether resveratrol activation of sir2 could promote fat mobilization or inhibition of differentiation in mammalian cells, we infected growing cells with wild-type SIRT1 or a deacetylase deficient form of SIRT1. […]
3T3-L1 and NIH3T3 cells were maintained in DMEM plus 10% calf serum. […] The staining of adipocytes with Oil Red-O and quantitation was performed as described previously (Ramirez-Zacarias J L, Castro-Munozledo F, Kuri-Harcuch W. Histochemistry. 1992 July; 97(6):493-7). […]

Each structure is given as a SMILES string.

In the case of `Oc1ccc(/C=C/c2cc(O)cc(O)c2)cc1` [resveratrol, 3,5,4′-Trihydroxy-trans-stilbene], the fat mobilization result in the assay on C. elegans worms (RNA inactivation of DAF-16, or inactivation of DAF-16 by mutation) is “had no effect on resveratrol-stimulated fat mobilization”; in the assay with C. elegans worms (RNA inactivation of TOC1.8 (AMPK homolog) or F41E7.3 (COT homolog)) it was “blocks resveratrol-stimulated fat mobilization”; in the assay with C. elegans worms (Sir2.1 RNAi (R11A8.4)), “did not show resveratrol induced fat mobilization”. Further, the “reduction of fat content” value in the assay with C. elegans worms (RNAi vector alone, 100 μM resveratrol, Nile Red assessed after 24 hours) came out at 75%. Also, the “phosphorylation of ACC” value with phosphorylation of ACC is “stimulated the phosphorylation of ACC at both day 6 and day 10”. In addition, in the assay on NIH3T3 cells (10 days of differentiation, 0, 12.5 and 25 μM tested, Oil Red O), the “concentrations that decreased the quantity of cellular fat” value was ≥ 25 µM. The “decrease in fat content” value in the assay on NIH3T3 cells (cells expressing SIRT1 deacetylase deficient mutant (SIRT1ΔHY), 0, 12.5 or 25 μM, eight days) is recorded as “partially reduced”.
